Where a SMILES comes first, the peptide text is derived from it. Bridges are numbered along the chain shown (N, C = ends). [ ]: non-standard residue; d: D form. hArg = N=C(N)NCCCC[C@H](N)C(=O)O
Assays:
human MCH-1R = human MCH-1R (Homo sapiens, UniProt Q99705); experiment: Aequorin bioluminescence functional assay, MCH-1R; conditions: for MCH-1R Activation %: % Activation at 10 μM, aequorin functional assay
human MCH-R2 = human MCH-R2 (Homo sapiens, UniProt Q969V1); experiment: Aequorin bioluminescence functional assay, MCH-2R; conditions: for MCH-2R Activation %: % Activation at 10 μM; for MCH-2R Activation % / EC50: aequorin functional assay; for EC50: MCH-2R EC50 (nM), 293-AEQ17 cells; for selective activity at MCH-2R over MCH-1R: greater binding and/or activation at MCH-2R than at MCH-1R
human MCH-R2, sequence (Q969V1 whole entry): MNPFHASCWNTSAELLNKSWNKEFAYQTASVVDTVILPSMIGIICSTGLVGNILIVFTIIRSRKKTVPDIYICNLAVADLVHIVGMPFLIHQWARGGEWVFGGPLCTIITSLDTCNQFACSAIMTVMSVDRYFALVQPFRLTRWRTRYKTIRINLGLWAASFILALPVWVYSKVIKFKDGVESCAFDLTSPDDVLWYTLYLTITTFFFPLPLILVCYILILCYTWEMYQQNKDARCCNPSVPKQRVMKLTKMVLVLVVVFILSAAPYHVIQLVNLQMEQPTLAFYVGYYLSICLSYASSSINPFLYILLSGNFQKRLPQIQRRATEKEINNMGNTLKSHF
Experimental: The aequorin bioluminescence assay can be used to measure the activity of G protein-coupled receptors that couple through the Gα protein subunit family consisting of Gq and G11. Such coupling leads to phospholipase C activation, intracellular calcium mobilization and protein kinase C activation.
Following approximately 40 hours of expression the apo-aequorin in the cells was charged for 4 hours with coelenterazine (10 μM) under reducing conditions (300 μM reduced glutathione) in ECB buffer (140 mM NaCl, 20 mM KCl, 20 mM HEPES-NaOH [pH=7.4], 5 mM glucose, 1 mM MgCl2, 1 mM CaCl2, 0.1 mg/ml bovine serum albumin).
The cells were harvested, washed once in ECB medium and resuspended to 500,000 cells/ml. 100 μl of cell suspension (corresponding to 5×10^4 cells) was then injected into the test plate containing MCH or MCH analogs, and the integrated light emission was recorded over 30 seconds, in 0.5 second units. 20 μL of lysis buffer (0.1% final Triton X-100 concentration) was then injected and the integrated light emission recorded over 10 seconds, in 0.5 second units. The “fractional response” values for each well were calculated by taking the ratio of the integrated response to the initial challenge to the total integrated luminescence including the Triton X-100 lysis response.

human MCH-2R = human MCH-2R (Homo sapiens, UniProt Q969V1); experiment: Radiolabeled MCH-R binding assay (SPA based), MCH-2R; conditions: MCH-2R IC50 (nM)
human MCH-2R, sequence (Q969V1 whole entry): as above
Experimental: Cell membranes were prepared on ice. Each T-75 flask was rinsed twice with 10 ml of Enzyme-free Cell Dissociation Buffer (Specialty Media, Lavallette, N.J.), and the cell monolayer was detached in an additional 10 ml of Enzyme-free Cell Dissociation Buffer by incubation at room temperature for 10 minutes. Dissociated cells were centrifuged (500×g for 10 minutes at 4° C.), resuspended in 5 ml homogenization buffer (10 mM Tris-HCl, pH 7.4, 0.01 mM Pefabloc, 10 μM phosphoramidon, 40 μg/ml bacitracin) and then homogenized using a glass homogenizer (10-15 strokes). The homogenate was centrifuged for 10 minutes (1,000×g at 4° C.). The resulting supernatant was then centrifuged at 38,700×g for 15 minutes at 4° C. Pelleted membranes were resuspended (passed through 25 gauge needle 5 times), snap-frozen on liquid nitrogen, and stored at −80° C. until use.
For the SPA-based assay, WGA-PVT beads (NEN Life Sciences Products) were resuspended in Dulbecco's PBS with calcium and magnesium (500 mg beads in 4 ml PBS). […] The suspension was mixed gently for 20 minutes, 12.3 ml of assay buffer and protease inhibitors were added (final concentration given): 2 μg/ml leupeptin, 10 μM phosphoramidon, 40 μg/ml bacitracin, 5 μg/ml aprotinin, 0.1 mM Pefabloc.
Coated beads were kept on ice until use. […] Binding reactions were allowed to proceed at room temperature for 3 hours. Quantitation was performed by scintillation counting (TopCount device).

[1] = Table 1, inhibition of [125I]-human MCH (Phe13, Tyr19) binding

human MCH-1R, sequence (Q99705 whole entry): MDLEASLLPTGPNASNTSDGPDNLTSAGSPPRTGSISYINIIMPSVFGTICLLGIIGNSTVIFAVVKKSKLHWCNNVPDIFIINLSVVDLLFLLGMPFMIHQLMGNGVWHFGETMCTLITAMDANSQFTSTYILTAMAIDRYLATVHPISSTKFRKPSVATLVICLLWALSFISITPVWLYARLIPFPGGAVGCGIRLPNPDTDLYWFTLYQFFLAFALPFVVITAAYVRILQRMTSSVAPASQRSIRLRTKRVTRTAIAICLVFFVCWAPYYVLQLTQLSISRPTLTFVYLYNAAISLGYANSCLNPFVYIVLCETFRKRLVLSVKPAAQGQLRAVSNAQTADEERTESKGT

Row | SMILES | MCH-1R Activation % (human MCH-1R; Table 3) | MCH-2R Activation % (human MCH-R2; Table 3) | IC50 (human MCH-2R; Table 3) | MCH-1R Activation % (human MCH-1R; Table 2) | EC50 (human MCH-R2; Table 1) | MCH-2R Activation % (human MCH-R2; Table 2) | IC50 (human MCH-2R; [1]) | IC50 (human MCH-2R; Table 2) | EC50 (human MCH-1R) | MCH-1R Activation % (human MCH-1R; Table 1) | MCH-2R Activation % (human MCH-R2; Table 1) | selective activity at MCH-2R over MCH-1R (human MCH-R2)
1 | CSCC[C@H](NC(=O)[C@H](CC(=O)O)NC(=O)[C@H](Cc1ccccc1)NC(=O)[C@@H](N)CC(=O)O)C(=O)N[C@@H](CC(C)C)C(=O)N[C@@H](CCCNC(=N)N)C(=O)N[C@H]1CSSC[C@@H](C(=O)N[C@@H](Cc2c[nH]c3ccccc23)C(=O)N[C@@H](CCC(N)=O)C(=O)N[C@H](C(=O)O)C(C)C)NC(=O)[C@@H]2CCCN2C(=O)[C@H](CCCNC(=N)N)NC(=O)[C@H](Cc2ccc(O)cc2)NC(=O)[C@H](C(C)C)NC(=O)[C@H](CCCNC(=N)N)NC(=O)CNC(=O)[C@H](CC(C)C)NC(=O)[C@H](C)NC1=O [compound 47] (H-DFDMLRCALGRVYRPCWQV-OH; disulfide 7-16; N-terminus and C-terminus assumed) | 56% | 94% | 40 nM | – | – | – | – | – | – | – | – | –
2 | CSCC[C@@H]1NC(=O)[C@@H](NC(=O)[C@H](CCCNC(=N)N)NC(=O)[C@H](CC(C)C)NC(=O)[C@H](CCSC)NC(=O)[C@H](CC(=O)O)NC(=O)[C@H](Cc2ccccc2)NC(=O)[C@@H](N)CC(=O)O)CSSC[C@@H](C(=O)N[C@@H](Cc2c[nH]c3ccccc23)C(=O)N[C@@H](CCC(N)=O)C(=O)N[C@H](C(=O)O)C(C)C)NC(=O)[C@@H]2CCCN2C(=O)[C@H](CCCNC(=N)N)NC(=O)[C@H](Cc2ccc(O)cc2)NC(=O)[C@H](C(C)C)NC(=O)[C@H](CCCNC(=N)N)NC(=O)CNC(=O)[C@H](CC(C)C)NC1=O [compound 1] | 100% | 100% | 0.9 nM | 100% | 30.7 nM | 100% | 0.5 nM | 0.5 nM | – | – | – | –
3 | CSCC[C@@H]1NC(=O)[C@@H](NC(=O)[C@H](CCCNC(=N)N)NC(C)=O)CSSC[C@@H](C(N)=O)NC(=O)[C@@H]2CCCN2C(=O)[C@H](CCCNC(=N)N)NC(=O)[C@H](Cc2ccc(O)cc2)NC(=O)[C@H](C(C)C)NC(=O)[C@H](CCCCNC(=N)N)NC(=O)[C@@H](C)NC(=O)[C@H](CC(C)C)NC1=O [compound 36] (Ac-RCML[dA][hArg]VYRPC-NH2; disulfide 2-11) | – | – | – | – | 19 nM | – | 0.9 nM | – | > 10000 nM | 0.1% | 74% | selectively active
4 | CSCC[C@@H]1NC(=O)[C@@H](NC(=O)[C@H](CCCNC(=N)N)NC(C)=O)CSSC[C@@H](C(N)=O)NC(=O)[C@@H]2CCCN2C(=O)[C@H](CCCNC(=N)N)NC(=O)[C@H](Cc2ccc(O)cc2)NC(=O)[C@H](C(C)C)NC(=O)[C@H](CCCNC(=N)N)NC(=O)[C@@H](CC(N)=O)NC(=O)[C@H](CC(C)C)NC1=O [compound 18] | – | – | – | – | 24 nM | – | 2.3 nM | – | – | 39% | 106% | selectively active
5 | CSCC[C@@H]1NC(=O)[C@@H](NC(=O)[C@H](CCCNC(=N)N)NC(=O)[C@H](CC(C)C)NC(=O)[C@H](CCSC)NC(=O)[C@H](CC(=O)O)NC(=O)[C@H](Cc2ccccc2)NC(=O)[C@@H](N)CC(=O)O)CSSC[C@@H](C(=O)N[C@@H](Cc2c[nH]c3ccccc23)C(=O)N[C@@H](CCC(N)=O)C(=O)N[C@H](C(=O)O)C(C)C)NC(=O)[C@H](C)NC(=O)[C@H](CCCNC(=N)N)NC(=O)[C@H](Cc2ccc(O)cc2)NC(=O)[C@H](C(C)C)NC(=O)[C@H](CCCNC(=N)N)NC(=O)CNC(=O)[C@H](CC(C)C)NC1=O [compound 53] (H-DFDMLRCMLGRVYRACWQV-OH; disulfide 7-16; N-terminus and C-terminus assumed) | 99% | 96% | 19 nM | – | – | – | – | – | – | – | – | –
